Assays:
PPARα = target: T1, PPARα (Homo sapiens, UniProt Q07869); experiment: PPARα radioligand binding assay (SPA, GST-PPARα-LBD)
T1 construct: PPARα (aa 167 to 469); made in house; host or cells: E. coli BL21 (pLysS)
T1 sequence (Q07869 167-468 limits assumed): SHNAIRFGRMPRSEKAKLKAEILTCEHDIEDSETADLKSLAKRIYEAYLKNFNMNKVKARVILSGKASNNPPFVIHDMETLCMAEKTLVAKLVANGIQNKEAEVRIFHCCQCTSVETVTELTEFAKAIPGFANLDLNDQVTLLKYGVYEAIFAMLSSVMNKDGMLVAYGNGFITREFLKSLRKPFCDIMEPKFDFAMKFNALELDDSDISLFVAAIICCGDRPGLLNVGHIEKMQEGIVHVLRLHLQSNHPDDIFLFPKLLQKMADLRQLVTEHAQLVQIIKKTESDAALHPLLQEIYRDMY
Description: (§1) Background information on the performed assays can be found in: Nichols J S et al. “Development of a scintillation proximity assay for peroxisome proliferator-activated receptor gamma ligand binding domain”, (1998) Anal. Biochem. 257: 112-119.
(§2) Full-length cDNA clones for humans PPARδ and PPARα and mouse PPARγ were obtained by RT-PCR from human adipose and mouse liver cRNA, respectively, cloned into plasmid vectors and verified by DNA sequencing. Bacterial and mammalian expression vectors were constructed to produce glutathione-s-transferase (GST) and Gal4 DNA binding domain proteins fused to the ligand binding domains (LBD) of PPARδ (aa 139 to 442), PPARγ (aa 174 to 476) and PPARα (aa 167 to 469). To accomplish this, the portions of the cloned sequences encoding the LBDs were amplified from the full-length clones by PCR and then subcloned into the plasmid vectors. Final clones were verified by DNA sequence analysis.
(§3) Induction, expression, and purification of GST-LBD fusion proteins were performed in E. coli strain BL21 (pLysS) cells by standard methods (Ref: Current Protocols in Molecular Biology, Wiley Press, edited by Ausubel et al.).
(§4) PPARα receptor binding was assayed in TKE50 (50 mM Tris-HCl, pH 8, 50 mM KCl, 2 mM EDTA, 0.1 mg/ml fatty acid-free BSA and 10 mM DTT). For each 96 well reaction an 140 ng equivalent of GST-PPARα-LBD fusion protein was bound to 10 μg SPA beads (PharmaciaAmersham) in a final volume of 50 μl by shaking. The resulting slurry was incubated for 1 h at RT and centrifuged for 2 min at 1300 g. The supernatant containing unbound protein was removed and the semidry pellet containing the receptor-coated beads was resolved in 50 μl of TKE. […] All binding assays were performed in 96 well plates and the amount of bound ligand measured on a Packard TopCount using OptiPlates (Packard). Nonspecific binding was determined in the presence of 10^−4 M unlabelled compound. […]

PPARγ = target: T2, PPARγ (Mus musculus, UniProt P37238); experiment: PPARγ radioligand binding assay (SPA, GST-PPARγ-LBD)
T2 construct: PPARγ (aa 174 to 476); made in house; host or cells: E. coli BL21 (pLysS)
T2 sequence (P37238 204-505): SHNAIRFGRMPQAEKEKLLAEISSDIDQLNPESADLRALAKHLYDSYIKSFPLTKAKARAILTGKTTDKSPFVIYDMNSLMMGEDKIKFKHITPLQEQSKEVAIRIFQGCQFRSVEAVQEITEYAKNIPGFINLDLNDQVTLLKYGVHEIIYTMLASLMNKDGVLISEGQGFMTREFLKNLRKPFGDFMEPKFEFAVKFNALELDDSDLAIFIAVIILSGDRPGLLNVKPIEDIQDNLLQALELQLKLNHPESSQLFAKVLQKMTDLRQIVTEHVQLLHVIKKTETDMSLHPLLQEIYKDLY
Description: as §1, §2, §3
as §4, with “PPARγ” for “PPARα”, “GST-PPARγ-LBD” for “GST-PPARα-LBD”, “ul” for “μl”

PPARδ = target: T3, PPARδ (Homo sapiens, UniProt Q03181); experiment: PPARδ radioligand binding assay (SPA, GST-PPARδ-LBD)
T3 construct: PPARδ (aa 139 to 442); made in house; host or cells: E. coli BL21 (pLysS)
T3 sequence (Q03181 139-441 limits assumed): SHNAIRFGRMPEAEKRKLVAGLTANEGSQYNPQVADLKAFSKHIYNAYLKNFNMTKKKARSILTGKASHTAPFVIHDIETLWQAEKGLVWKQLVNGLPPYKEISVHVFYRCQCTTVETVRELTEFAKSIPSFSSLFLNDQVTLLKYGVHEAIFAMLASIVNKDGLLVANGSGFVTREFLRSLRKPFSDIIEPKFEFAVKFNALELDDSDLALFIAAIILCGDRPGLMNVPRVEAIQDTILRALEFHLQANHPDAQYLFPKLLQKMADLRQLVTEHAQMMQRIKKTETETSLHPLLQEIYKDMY
Description: as §1, §2, §3
PPARδ receptor binding was assayed in HNM10 (50 mM Hepes, pH 7.4, 10 mM NaCl, 5 mM MgCl2, 0.15 mg/ml fatty acid-free BSA and 15 mM DTT). For each 96 well reaction a 500 ng equivalent of GST-PPARδ-LBD fusion protein and radioligand, e.g. 20000 dpm {2-methyl-4-[4-methyl-2-(4-trifluoromethyl-phenyl)-thiazol-5-yl-ditritiomethylsulfanyl]-phenoxy}-acetic acid, was bound to 10 μg SPA beads (PharmaciaAmersham) in a final volume of 50 μl by shaking. The resulting slurry was incubated for 1 h at RT and centrifuged for 2 min at 1300 g. […] Radioligand was added and the reaction incubated at RT for 1 h and scintillation proximity counting performed in the presence of test compounds was determined. All binding assays were performed in 96 well plates and the amount of bound ligand was measured on a Packard TopCount using OptiPlates (Packard). […]

Structure (SMILES)	IC50 (PPARα)	IC50 (PPARγ)	IC50 (PPARδ)
Cc1cc(OC(C)C(=O)Nc2cccc(-c3ccc(C(F)(F)F)cc3)c2)ccc1OC(C)(C)C(=O)O (racemic) [Example 09, [rac]-2-Methyl-2-{2-methyl-4-[1-(4′-trifluoromethyl-biphenyl-3-ylcarbamoyl)-ethoxy)-phenoxy}-propionic acid]	420 nM	> 10000 nM	580 nM
CC(C)(Oc1ccc(CCCC(=O)Nc2cnc(-c3ccc(C(F)(F)F)cc3)nc2C2CC2)cc1)C(=O)O [Example 16, 2-(4-{3-[4-Cyclopropyl-2-(4-trifluoromethyl-phenyl)-pyrimidin-5-ylcarbamoyl]-propyl}-phenoxy)-2-methyl-propionic acid]	8 nM	> 10000 nM	> 10000 nM
Cc1cc(OCCNC(=O)c2cnc(-c3ccc(C(F)(F)F)cc3)nc2C2CC2)ccc1OC(C)(C)C(=O)O [Example 20, 2-[4-(2-{[4-Cyclopropyl-2-(4-trifluoromethyl-phenyl)-pyrimidine-5-carbonyl]-amino}-ethoxy)-2-methyl-phenoxy]-2-methyl-propionic acid]	24 nM	1080 nM	940 nM

Source: patent US20060183754A1, “Amide bridged piphenyl or biazaphenyl derivatives” (priority 2005, published 2006)
